Test results published in ChEMBL document CHEMBL5236590, “Discovery of Novel N-(5-(Pyridin-3-yl)-1H-indazol-3-yl)benzamide Derivatives as Potent Cyclin-Dependent Kinase 7 Inhibitors for the Treatment of Autosomal Dominant Polycystic Kidney Disease” (J Med Chem, 2022).

What was measured:
[1] = target: T1, Cyclin-dependent kinase 7 (Homo sapiens, UniProt P50613); experiment: Inhibition of CDK7 (unknown origin) assessed as phosphorylation of ULight 4EBP1 peptide substrate measured after 2 hrs by FRET-based LANCE Ultra KinSelect assay
T1 sequence (P50613 whole entry): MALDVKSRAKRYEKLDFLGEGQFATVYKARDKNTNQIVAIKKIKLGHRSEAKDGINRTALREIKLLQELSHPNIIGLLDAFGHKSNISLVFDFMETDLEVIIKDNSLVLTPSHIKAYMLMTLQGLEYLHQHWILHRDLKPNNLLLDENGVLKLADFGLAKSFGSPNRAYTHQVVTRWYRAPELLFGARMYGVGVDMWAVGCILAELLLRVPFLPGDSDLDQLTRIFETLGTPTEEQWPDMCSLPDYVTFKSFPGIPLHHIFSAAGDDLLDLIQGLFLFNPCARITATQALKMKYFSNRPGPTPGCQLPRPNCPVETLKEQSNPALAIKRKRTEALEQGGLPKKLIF

[2] = target: T2, Cyclin-dependent kinase 2 (Homo sapiens, UniProt P24941); experiment: Inhibition of CDK2 (unknown origin) assessed as phosphorylation of ULight 4EBP1 peptide substrate measured after 2 hrs by FRET-based LANCE Ultra KinSelect assay
[3] = target: T2, Cyclin-dependent kinase 2; experiment: Inhibition of CDK2 (unknown origin) assessed as phosphorylation of ULight 4EBP1 peptide substrate at 10 uM measured after 2 hrs by FRET-based LANCE Ultra KinSelect assay
[4] = target: T1, Cyclin-dependent kinase 7; experiment: Inhibition of CDK7 (unknown origin) assessed as phosphorylation of ULight 4EBP1 peptide substrate at 10 uM measured after 2 hrs by FRET-based LANCE Ultra KinSelect assay relative to control
THP-1 = experiment: Cytotoxicity against human THP-1 cells assessed as cell viability measured after 24 hrs by CCK-8 assay; format: functional, cell-based; settings: THP-1, 24 h

Row | SMILES | IC50 [1] [nM] | IC50 [2] [nM] | other results
1 | O=C(Nc1n[nH]c2ccc(-c3cccnc3)cc12)c1ccccc1 | 7550 |  | 
2 | O=C(Nc1n[nH]c2ccc(-c3cncc(O)c3)cc12)c1ccccc1 | 7240 |  | 
3 | O=C(Nc1n[nH]c2ccc(-c3cncc(NCCO)c3)cc12)c1ccccc1 | 1710 |  | 
4 | O=C(Nc1n[nH]c2ccc(-c3cncc(NC[C@H](CO)c4ccccc4)c3)cc12)c1ccccc1 | 1730 | 577 | 
5 | COc1cncc(-c2ccc3[nH]nc(NC(=O)c4ccccc4)c3c2)c1 | 5530 |  | 
6 | Cc1cncc(-c2ccc3[nH]nc(NC(=O)c4ccccc4)c3c2)c1 | 2610 |  | 
7 | NCC(=O)Nc1cncc(-c2ccc3[nH]nc(NC(=O)c4ccccc4)c3c2)c1 | 2490 |  | 
8 | N[C@H](C(=O)Nc1cncc(-c2ccc3[nH]nc(NC(=O)c4ccccc4)c3c2)c1)c1ccccc1 | 3140 |  | inhibition [3]: 34%
9 | Nc1cncc(-c2ccc3[nH]nc(NC(=O)c4ccccc4)c3c2)c1 |  |  | inhibition [4]: 45%
10 | CN(C)C/C=C/C(=O)Nc1ccc(C(=O)Nc2cccc(Nc3ncc(Cl)c(-c4c[nH]c5ccccc45)n3)c2)cc1 |  |  | IC50 (THP-1): 77000 nM
11 | O=C(Nc1n[nH]c2ccc(-c3cncc(NC[C@H](CO)Cc4ccccc4)c3)cc12)c1ccccc1 | 2640 | 2400 | 
12 | N[C@@H](COc1cncc(-c2ccc3[nH]nc(NC(=O)c4ccccc4)c3c2)c1)c1ccccc1 | 4920 |  | inhibition [3]: 48%
13 | CNC(=O)c1cncc(-c2ccc3[nH]nc(NC(=O)c4ccccc4)c3c2)c1 | 3780 |  | 
14 | N[C@@H](C(=O)Nc1cncc(-c2ccc3[nH]nc(NC(=O)c4ccccc4)c3c2)c1)c1ccccc1 |  |  | inhibition [4]: 34%; inhibition [3]: 29%
15 | N[C@@H](COc1cncc(-c2ccc3[nH]nc(NC(=O)c4ccccc4)c3c2)c1)Cc1ccccc1 | 2390 | 499 | 
16 | NCCOc1cncc(-c2ccc3[nH]nc(NC(=O)c4ccccc4)c3c2)c1 | 2000 |  | 
17 | N[C@H](Cc1ccccc1)C(=O)Nc1cncc(-c2ccc3[nH]nc(NC(=O)c4ccccc4)c3c2)c1 | 2070 | 550 | 
18 | NCCNc1cncc(-c2ccc3[nH]nc(NC(=O)c4ccccc4)c3c2)c1 | 1560 |  | 

The next lines start with results.

Row | IC50 [1] [nM] | IC50 [2] [nM] | SMILES | other results
19 | 6 | 918 | C=CC(=O)Nc1ccc(C(=O)Nc2n[nH]c3ccc(-c4cncc(NC[C@H](O)c5ccccc5)c4)cc23)cc1 | 
20 | 311 | 269 | O=C(Nc1n[nH]c2ccc(-c3cncc(NC[C@H](O)c4ccccc4)c3)cc12)c1ccccc1 | 
21 | 64 |  | C=CC(=O)Nc1ccc(C(=O)Nc2n[nH]c3ccc(-c4cncc(NC(=O)[C@@H](N)c5ccccc5)c4)cc23)cc1 | 
22 | 19 | 756 | C=CC(=O)Nc1ccc(C(=O)Nc2n[nH]c3ccc(-c4cncc(N[C@H](CO)c5ccccc5)c4)cc23)cc1 | 
23 | 440 | 802 | O=C(Nc1n[nH]c2ccc(-c3cncc(NC[C@@H](O)c4ccccc4)c3)cc12)c1ccccc1 | 
24 | 1340 | 1050 | N[C@@H](Cc1ccccc1)C(=O)Nc1cncc(-c2ccc3[nH]nc(NC(=O)c4ccccc4)c3c2)c1 | 
25 | 692 | 120 | N[C@H](COc1cncc(-c2ccc3[nH]nc(NC(=O)c4ccccc4)c3c2)c1)c1ccccc1 | 
26 | 335 | 97 | N[C@H](COc1cncc(-c2ccc3[nH]nc(NC(=O)c4ccccc4)c3c2)c1)Cc1ccccc1 | 
27 | 670 | 609 | O=C(Nc1n[nH]c2ccc(-c3cncc(NC[C@@H](CO)Cc4ccccc4)c3)cc12)c1ccccc1 | 
28 | 5 | 595 | C=CC(=O)Nc1ccc(C(=O)Nc2n[nH]c3ccc(-c4cncc(N[C@H](CO)Cc5ccccc5)c4)cc23)cc1 | 
29 | 7 | 477 | C=CC(=O)Nc1ccc(C(=O)Nc2n[nH]c3ccc(-c4cncc(NC(=O)[C@@H](N)Cc5ccccc5)c4)cc23)cc1 | 
30 | 710 | 813 | O=C(Nc1n[nH]c2ccc(-c3cncc(NC[C@@H](CO)c4ccccc4)c3)cc12)c1ccccc1 | 
31 | 395 | 190 | NC[C@@H](CNc1cncc(-c2ccc3[nH]nc(NC(=O)c4ccccc4)c3c2)c1)c1ccccc1 | 
